For one assay, the target named is T1, CDK9 (Homo sapiens, UniProt P50750).
T1 construct: made in house; host or cells: E. coli BL21-derived host (T7 phage) or HEK-293 ('BEK-293' [sic])
As to the kind of experiment: KdELECT binding assay, CDK9. The following applies: CDK9, Table 7. As for the experimental part: (§1) Compounds were tested using a KdELECT. Kinase-tagged T7 phage strains were prepared in an E. coli host derived from the BL21 strain. E. coli were grown to log-phase and infected with T7 phage and incubated with shaking at 32° C. until lysis. The lysates were centrifuged and filtered to remove cell debris. The remaining kinases were produced in BEK-293 cells and subsequently tagged with DNA for qPCR detection. Streptavidin-coated magnetic beads were treated with biotinylated small molecule ligands for 30 minutes at room temperature to generate affinity resins for kinase assays. The liganded beads were blocked with excess biotin and washed with blocking buffer (SeaBlock (Pierce), 1% BSA, 0.05% Tween 20, 1 mM DTT) to remove unbound ligand and to reduce non-specific binding. Binding reactions were assembled by combining kinases, liganded affinity beads, and test compounds in 1× binding buffer (20% SeaBlock, 0.17×PBS, 0.05% Tween 20, 6 mM DTT). Test compounds were prepared as 111× stocks in 100% DMSO. Kd values were determined using an 11-point 3-fold compound dilution series with three DMSO control points. All compounds for Kd measurements are distributed by acoustic transfer (non-contact dispensing) in 100% DMSO. The compounds were then diluted directly into the assays such that the final concentration of DMSO was 0.9%. All reactions performed in polypropylene 384-well plate. Each was a final volume of 0.02 mL. The assay plates were incubated at room temperature with shaking for 1 hour and the affinity beads were washed with wash buffer (lx PBS, 0.05% Tween 20). The beads were then re-suspended in elution buffer (lx PBS, 0.05% Tween 20, 0.5 μM nonbiotinylated affinity ligand) and incubated at room temperature with shaking for 30 minutes. The kinase concentration in the eluates was measured by qPCR.

The target of a further assay is T2, CDK2 (Homo sapiens, UniProt P24941).
T2 construct: made in house; host or cells: E. coli BL21-derived host (T7 phage) or HEK-293 ('BEK-293' [sic])
The experiment in a line: KdELECT binding assay, CDK2. As to conditions: CDK2, Table 8. As for the experimental part: as §1, with “All reactions performed in polypropylene 384-well plate. Each was a final volume of 0.02 mL. The assay plates were incubated at room temperature with shaking for 1 hour and the affinity beads were washed with wash buffer (lx PBS, 0.05% Tween 20). The beads were then re-suspended in elution buffer (lx PBS, 0.05% Tween 20, 0.5 μM nonbiotinylated affinity ligand) and incubated at room temperature with shaking for 30 minutes.” left out

Another assay deals with T3, CDK1 (Homo sapiens, UniProt P06493).
T3 construct: made in house; host or cells: E. coli BL21-derived host (T7 phage) or HEK-293 ('BEK-293' [sic])
The experiment in a line: KdELECT binding assay, CDK1. As to conditions: CDK1, Table 9. As for the experimental part: as §1

Kd data for 19 compounds are collected here from patent publication US20260159520A1, “HETEROBIFUNCTIONAL COMPOUNDS AND METHODS OF TREATING DISEASE” (Halda Therapeutics OpCo, Inc., priority 2022, published 2026).

SMILES strings stand for the structures. Where only a bound is given, the exact number is not on record here.

T3 sequence (P06493 whole entry): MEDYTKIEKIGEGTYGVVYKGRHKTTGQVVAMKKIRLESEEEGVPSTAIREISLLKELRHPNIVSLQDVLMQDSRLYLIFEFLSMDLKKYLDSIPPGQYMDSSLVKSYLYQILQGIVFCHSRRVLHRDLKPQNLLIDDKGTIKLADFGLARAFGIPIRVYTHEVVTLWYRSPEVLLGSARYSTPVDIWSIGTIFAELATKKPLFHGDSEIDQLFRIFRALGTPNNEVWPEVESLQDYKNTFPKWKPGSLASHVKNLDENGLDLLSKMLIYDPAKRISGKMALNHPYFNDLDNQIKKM
T1 sequence (P50750 whole entry): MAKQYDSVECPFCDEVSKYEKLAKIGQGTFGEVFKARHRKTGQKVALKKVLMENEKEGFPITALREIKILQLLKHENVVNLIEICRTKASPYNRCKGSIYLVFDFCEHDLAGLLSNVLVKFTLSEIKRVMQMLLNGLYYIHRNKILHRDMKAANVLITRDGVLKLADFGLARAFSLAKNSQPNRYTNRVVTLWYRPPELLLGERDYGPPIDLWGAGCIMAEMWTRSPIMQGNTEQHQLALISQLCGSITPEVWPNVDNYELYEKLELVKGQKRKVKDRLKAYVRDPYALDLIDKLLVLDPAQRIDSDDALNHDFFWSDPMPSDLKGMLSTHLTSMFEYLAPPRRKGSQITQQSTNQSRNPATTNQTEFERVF

As a reminder, the Kd is a measure of binding affinity in units of concentration. Lower therefore signals a tighter complex. At CDK9, `CCc1cnn2c(NCc3ccc(OCCN(C)c4ncc(C(=O)N[C@H]5C(C)(C)[C@H](Oc6ccc(C#N)c(Cl)c6)C5(C)C)cn4)nc3)cc(N3CCCC[C@H]3CCO)nc12` [Compound I-1] came in with a Kd of 50 to 500 nM.

`CCc1cnn2c(NCc3ccc(OCCOCCOCCOCCOCCN(C)c4ncc(C(=O)N[C@H]5C(C)(C)[C@H](Oc6ccc(C#N)c(Cl)c6)C5(C)C)cn4)nc3)cc(N3CCCC[C@H]3CCO)nc12` [Compound I-3] yielded a Kd on CDK9 of 50 to 500 nM.

Take `CCc1cnn2c(NCc3ccc(OCCOC4CCN(c5ncc(C(=O)N[C@H]6C(C)(C)[C@H](Oc7ccc(C#N)c(Cl)c7)C6(C)C)cn5)CC4)nc3)cc(N3CCCC[C@H]3CCO)nc12` [Compound I-7, N-((1r,3r)-3-(3-chloro-4-cyanophenoxy)-2,2,4,4-tetramethylcyclobutyl)-2-(4-(2-((5-(((3-ethyl-5-((S)-2-(2-hydroxyethyl)piperidin-1-yl)pyrazolo[1,5-a]pyrimidin-7-yl)amino)methyl)pyridin-2-yl)oxy)ethoxy)piperidin-1-yl)pyrimidine-5-carboxamide]: on CDK9, the Kd lay within 500 to 2500 nM.

Consider `CCc1cnn2c(NCc3ccc(OCCOCCOCCOC4CCN(c5ncc(C(=O)N[C@H]6C(C)(C)[C@H](Oc7ccc(C#N)c(Cl)c7)C6(C)C)cn5)CC4)nc3)cc(N3CCCC[C@H]3CCO)nc12` [Compound I-8], for which the Kd at CDK9 was 50 to 500 nM; on CDK2, above 2500 nM; at CDK1, above 2500 nM.

`CCc1cnn2c(NCc3ccc(OCCOCCOCCOCCOCCOC4CCN(c5ncc(C(=O)N[C@H]6C(C)(C)[C@H](Oc7ccc(C#N)c(Cl)c7)C6(C)C)cn5)CC4)nc3)cc(N3CCCC[C@H]3CCO)nc12` [Compound I-9] yielded a Kd on CDK9 of 500 to 2500 nM.

As for `CC1(C)[C@H](NC(=O)c2cnc(N3CCC(OCCNS(=O)(=O)c4ccc(Nc5ncc(Br)c(Nc6cccc(F)c6C(N)=O)n5)cc4)CC3)nc2)C(C)(C)[C@H]1Oc1ccc(C#N)c(Cl)c1` [Compound I-13, 2-(4-(2-((4-((5-bromo-4-((2-carbamoyl-3-fluorophenyl)amino)pyrimidin-2-yl)amino)phenyl)sulfonamido)ethoxy)piperidin-1-yl)-N-((1 r,3r)-3-(3-chloro-4-cyanophenoxy)-2,2,4,4-tetramethylcyclobutyl)pyrimidine-5-carboxamide], the Kd on CDK9 was above 2500 nM.

Regarding `CCc1cnn2c(NCc3ccc(OCCCCOCCOC4CCN(c5ncc(C(=O)N[C@H]6C(C)(C)[C@H](Oc7ccc(C#N)c(Cl)c7)C6(C)C)cn5)CC4)nc3)cc(N3CCCC[C@H]3CCO)nc12` [Compound I-34], at CDK9, the Kd lay in the range of 500 to 2500 nM.

As for `CCc1cnn2c(NCc3ccc(OCCN4CCN(CC5CCN(c6ncc(C(=O)N[C@H]7C(C)(C)[C@H](Oc8ccc(C#N)c(Cl)c8)C7(C)C)cn6)CC5)CC4)nc3)cc(N3CCCC[C@H]3CCO)nc12` [Compound I-41], the figures for the Kd at CDK9 and on CDK1 were 50 to 500 nM and above 2500 nM, respectively.

As to `CCc1cnn2c(NCc3ccc(COCCN4CCN(CC5CCN(c6ncc(C(=O)N[C@H]7C(C)(C)[C@H](Oc8ccc(C#N)c(Cl)c8)C7(C)C)cn6)CC5)CC4)nc3)cc(N3CCCC[C@H]3CCO)nc12` [Compound I-42], the results for the Kd on CDK9 and on CDK1 were below 50 nM and above 2500 nM, respectively.

At CDK9, `CCc1cnn2c(NCc3ccc(OCCOCCOCCOC4CCN(c5ccc(C(=O)N[C@H]6C(C)(C)[C@H](Oc7ccc(C#N)c(Cl)c7)C6(C)C)nn5)CC4)nc3)cc(N3CCCC[C@H]3CCO)nc12` [Compound I-44, N-((1r,3r)-3-(3-chloro-4-cyanophenoxy)-2,2,4,4-tetramethylcyclobutyl)-6-(4-(2-(2-(2-((5-(((3-ethyl-5-((S)-2-(2-hydroxyethyl)piperidin-1-yl)pyrazolo[1,5-a]pyrimidin-7-yl)amino)methyl)pyridin-2-yl)oxy)ethoxy)ethoxy)ethoxy)piperidin-1-yl)pyridazine-3-carboxamide] registered a Kd of 50 to 500 nM.

On CDK9, `CCc1cnn2c(NCc3ccc(OCCOCC4CCN(CC5CCN(c6ncc(C(=O)N[C@H]7C(C)(C)[C@H](Oc8ccc(C#N)c(Cl)c8)C7(C)C)cn6)CC5)CC4)nc3)cc(N3CCCC[C@H]3CCO)nc12` [Compound I-45] came in with a Kd below 50 nM.

In turn, `CCc1cnn2c(NCc3ccc(OC4CCN(CC5CCN(c6ncc(C(=O)N[C@H]7C(C)(C)[C@H](Oc8ccc(C#N)c(Cl)c8)C7(C)C)cn6)CC5)CC4)nc3)cc(N3CCCC[C@H]3CCO)nc12` [Compound I-46] yielded a Kd at CDK9 below 50 nM.

At CDK9, `CCc1cnn2c(NCc3ccc(OCCN4CCN(CC5CCN(c6ncc(C(=O)N[C@H]7C(C)(C)[C@H](Oc8ccc(C#N)c(Cl)c8)C7(C)C)cn6)CC5)CC4)nc3)cc(-c3ccccc3)nc12` [Compound I-47, N-((1r,3r)-3-(3-chloro-4-cyanophenoxy)-2,2,4,4-tetramethylcyclobutyl)-2-(4-((4-(2-((5-(((3-ethyl-5-phenylpyrazolo[1,5-a]pyrimidin-7-yl)amino)methyl)pyridin-2-yl)oxy)ethyl)piperazin-1-yl)methyl)piperidin-1-yl)pyrimidine-5-carboxamide] gave a Kd above 2500 nM.

With `CCc1cnn2c(NCc3ccc(OCC4CCN(CC5CCN(c6ncc(C(=O)N[C@H]7C(C)(C)[C@H](Oc8ccc(C#N)c(Cl)c8)C7(C)C)cn6)CC5)CC4)nc3)cc(N3CCCC[C@H]3CCO)nc12` [Compound I-51], the Kd on CDK9 was 50 to 500 nM; at CDK1 it was above 2500 nM.

`CC(C)n1cc(-c2ccnc3[nH]c(C4CCN(CCN5CCN(CC6CCN(c7ncc(C(=O)NC8C(C)(C)C(Oc9ccc(C#N)c(Cl)c9)C8(C)C)cn7)CC6)CC5)CC4)cc23)ccc1=O` (stereo not drawn) [Compound I-74, N-[3-(3-chloro-4-cyano-phenoxy)-2,2,4,4-tetramethyl-cyclobutyl]-2-[4-[[4-[2-[4-[4-(1-isopropyl-6-oxo-3-pyridyl)-1H-pyrrolo [2,3-b]pyridin-2-yl]-1-piperidyl]ethyl]piperazin-1-yl]methyl]-1-piperidyl]pyrimidine-5-carboxamide]: on CDK9, the dissociation constant Kd is below 50 nM.

Regarding `CC1(C)[C@H](NC(=O)c2cnc(N3CCC(CN4CCN(CCN5C/C=C/CCOc6cccc(c6)-c6ccnc(n6)Nc6cccc(c6)C5)CC4)CC3)nc2)C(C)(C)[C@H]1Oc1ccc(C#N)c(Cl)c1` [Compound I-94], at CDK9, the Kd fell in the range of 500 to 2500 nM.

For the compound `Cc1ncc(-c2nc(Nc3ccc(C(=O)N4CC[C@H](N(C)CCOC5CCN(c6ncc(C(=O)N[C@H]7C(C)(C)[C@H](Oc8ccc(C#N)c(Cl)c8)C7(C)C)cn6)CC5)C4)cc3)ncc2F)n1C(C)C` [Compound I-95, N-[3-(3-chloro-4-cyano-phenoxy)-2,2,4,4-tetramethyl-cyclobutyl]-2-[4-[2-[[(3S)-1-[4-[[5-fluoro-4-(3-isopropyl-2-methyl-imidazol-4-yl)pyrimidin-2-yl]amino]benzoyl]pyrrolidin-3-yl]-methyl-amino]ethoxy]-1-piperidyl]pyrimidine-5-carboxamide], at CDK9, the Kd was 50 to 500 nM.

For the compound `Cc1ncc(-c2nc(Nc3ccc(C(=O)N4CC[C@H](N(C)CCOCCOCCOC5CCN(c6ncc(C(=O)N[C@H]7C(C)(C)[C@H](Oc8ccc(C#N)c(Cl)c8)C7(C)C)cn6)CC5)C4)cc3)ncc2F)n1C(C)C` [Compound I-96], the Kd at CDK9 was in the range of 50 to 500 nM.

Regarding `Cc1ncc(-c2nc(Nc3ccc(C(=O)N4CC[C@H](N(C)CCOCCOCCOCCOCCOC5CCN(c6ncc(C(=O)N[C@H]7C(C)(C)[C@H](Oc8ccc(C#N)c(Cl)c8)C7(C)C)cn6)CC5)C4)cc3)ncc2F)n1C(C)C` [Compound I-97], at CDK9, the Kd was in the range of 50 to 500 nM.
